Measurements reported in PMC9182146, “BSA Interaction, Molecular Docking, and Antibacterial Activity of Zinc(II) Complexes Containing the Sterically Demanding Biomimetic N3S2 Ligand: The Effect of Structure Flexibility” (Molecules, 2022).
Read-outs that look alike come from different tables or passages of the source.

Tests used:
[1] = biological target: T1, BSA (Bos taurus, UniProt P02769); conditions: for ΔHº / ΔSº: 288–308 K
Method: The association constants and number of binding sites between the zinc complexes and BSA were calculated according to Equation (4). (4) logF0−F/F=logKA+nlogQ
In general, ΔGº reflects the spontaneity of the reaction, whereas ΔHº and ΔSº are the main quantities for determining the binding force. The thermodynamic parameters of ΔHº and ΔSº were calculated using Equation (5), and the Gibbs free energy was estimated from Equation (6). lnKA = −ΔHº/RT + ΔSº/R(5) ΔGº = ΔHº − TΔSº = −RT ln KA(6)

[2] = biological target: T1, BSA; conditions: T = 298 K
From the text: The Förster resonance energy transfer (FRET) mechanism allows the excitation energy to be passed from the donor to the acceptor without photon emission from the former molecular system. According to the FRET principle, the rate of energy transfer depends on the distance between the donor and the acceptor, the orientation of the donor and the acceptor dipoles, and the degree of overlap between the donor emission spectrum and the acceptor absorption spectrum. Energy transfer efficiency (E) can be used to evaluate the distance (r) between zinc complexes (acceptor) and BSA (donor) in protein using Equation (8), (8) E=1−F/F0=R06/R06+r^6 where F and F0 are the fluorescence intensity of BSA in the presence and absence of the acceptor, respectively, r is the distance between the acceptor and donor, R0 is the critical distance for 50% energy transfer and can be calculated using Equation (9), (9) R06=8.8×10^−25K^2N^−4∅J where the spatial orientation factor of the dipole K^2 = 2/3, the refractive index of the medium (water) N = 1.333, and the fluorescence quantum yield of the donor BSA ∅ = 0.15 [10, 38]. The spectral overlap integral (J), calculated from the overlap of the acceptor UV absorption spectra with the donor fluorescence emission spectra, is given using Equation (10). (10) J=∫0∞Fλε λλ^4dλ/∫0∞Fλdλ

[3] = test system: Enterococcus; experiment: MIC and MBC antibacterial test; assay type: cell-based; conditions: 30 °C; for MIC: 24 h
Method: (§1) All complexes were tested for antibacterial activity against both […] bacteria. The antibacterial function of complexes, represented as the diameter of the growth-inhibition region in millimeters, is shown in Figure 8. The minimum inhibitory concentration (MIC) and minimum bactericidal concentration (MBC) of complexes needed to inhibit bacterial growth are presented in Table 4. The MBC is identified by the determination of the lowest concentration of antibacterial agents that reduces the viability of the initial bacterial inoculum by a predetermined reduction of 99.9%. The value agreed on in two or more occasions was adopted as the MIC or MBC strain. Chloramphenicol was used for control purposes. From the inhibition zone, as well as the MIC and MBC data, one can conclude the following: Firstly, both complexes were active, but the activity was less than that for the normal drug (chloramphenicol).
(§2) The synthesized complexes were tested against both […] bacteria for antibacterial activity. The bacteria were incubated by shaking in the thermostat at 30 °C overnight. At this stage, a loop of each culture was placed in 10 mL of 10-fold diluted broth, and the test bacteria cultures containing 10^5 mL^−1 cells were used for antimicrobial testing. […] MIC and MBC as recommended by the NCCLS (National Committee for Clinical Laboratory Standards, Albany, NY, USA). After 24 h of incubation, the MIC was read at 30 °C equivalent to the concentration of the tube without visible growth to measure the effect of decreased antibiotic/antiseptic concentrations over a defined period of time on the inhibition of microbial population growth. These assessments may be quite useful during the R&D phase of the product to determine the appropriate concentrations required in the final product, since the concentration of the drug required to produce the effect is normally several hundreds to thousands of times lower than the concentration found in the completed dosage form.

[4] = test system: Escherichia coli; experiment: MIC and MBC antibacterial test; assay type: cell-based; conditions: 30 °C
Method: as §1, §2

[5] = test system: Pseudomonas aeruginosa; experiment: MIC and MBC antibacterial test; assay type: cell-based; conditions: 30 °C; for MIC: 24 h
Method: as §1, §2

[6] = test system: Staphylococcus aureus; experiment: MIC and MBC antibacterial test; assay type: cell-based; conditions: 30 °C; for MIC: 24 h
Method: as §1, §2

[7] = Dynamic light scattering size distribution of self-assembled adducts in water; assay type: physicochemical; conditions: DLS, room temperature
[8] = biological target: T1, BSA; experiment: Fluorescence quenching of BSA (Stern–Volmer); conditions: for KSV (called binding constants in conclusions) / Kq: temperature not stated
[9] = biological target: T1, BSA; experiment: Cyclic voltammetry of BSA with zinc complexes; conditions: for BSA cathodic peak potential after addition of complex: BSA alone approximately −0.39 V, water, Ag/AgCl reference; for kR/kO binding constants: reduced over oxidized form
Method: Cyclic voltammograms of BSA in water in the presence and absence of zinc complexes were used for a voltammetric study.
The optical absorptions were performed using a 1.0 cm quartz cell on a JASCO spectrophotometer (V-780). Fluorescence measurements were carried out using the JASCO spectrofluorometer (FP-8300 model). The excitation wavelength was set at 280 nm, and the wavelength of the emission was set to 285–600 nm. Picosecond fluorescence decay profiles were measured using the FluoTime 300 (Pico Quant, Berlin, Germany) by the single-photon counting method. Lifetimes were evaluated using software supplied with the instrument. The time-resolved fluorescence instrumentation was the same as for steady-state experiments. Cyclic voltammograms were carried out on a Gamry setup with a carbon working electrode and a platinum wire as a counter electrode. A silver–silver chloride (Ag/AgCl) electrode was used as a reference electrode. All tests were carried out in oxygen-free solutions, and sodium sulfate was used as an electrolyte support. Dynamic light scattering (DLS) was used to determine the distribution profile of the particle size in the solution.

T1 sequence (P02769 25-607): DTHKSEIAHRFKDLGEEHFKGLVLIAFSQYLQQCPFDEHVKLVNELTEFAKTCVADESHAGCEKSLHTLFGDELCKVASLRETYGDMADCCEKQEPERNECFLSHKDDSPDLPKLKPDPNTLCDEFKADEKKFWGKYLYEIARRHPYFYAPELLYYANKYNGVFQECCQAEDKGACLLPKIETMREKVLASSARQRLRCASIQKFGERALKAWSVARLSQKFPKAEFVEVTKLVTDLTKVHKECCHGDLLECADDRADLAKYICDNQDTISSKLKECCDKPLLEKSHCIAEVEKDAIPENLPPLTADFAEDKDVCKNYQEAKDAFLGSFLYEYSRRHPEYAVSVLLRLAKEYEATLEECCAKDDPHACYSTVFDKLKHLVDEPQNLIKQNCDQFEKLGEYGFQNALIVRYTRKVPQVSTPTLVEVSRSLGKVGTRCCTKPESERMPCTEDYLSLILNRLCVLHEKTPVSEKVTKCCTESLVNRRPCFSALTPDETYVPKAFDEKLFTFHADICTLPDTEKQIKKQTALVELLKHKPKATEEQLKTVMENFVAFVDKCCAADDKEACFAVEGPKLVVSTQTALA

Row | SMILES | ΔHº [1] [kcal/mol] | ΔSº [1] [J mol^−1 K^−1] | KA (association constant) ([1]; T = 288 K) | n (number of binding sites) ([1]; T = 288 K) | ΔGº ([1]; T = 288 K) [kcal/mol] | KA (association constant) ([1]; T = 298 K) | n (number of binding sites) ([1]; T = 298 K) | ΔGº ([1]; T = 298 K) [kcal/mol] | KA (association constant) ([1]; T = 308 K) | n (number of binding sites) ([1]; T = 308 K) | ΔGº ([1]; T = 308 K) [kcal/mol] | n (number of binding sites) ([1]; all temperatures) | J (spectral overlap integral) [2] | R0 (critical distance for 50% energy transfer) [2] [nm] | r (distance between acceptor and donor) [2] [nm] | ∫F donor λ Δλ [2] | MBC [3] [µg/mL] | MIC [3] [µg/mL] | MBC [5] [µg/mL] | MIC [5] [µg/mL] | other results
1 | CC(=Nc1cc(C(C)(C)C)cc(C(C)(C)C)c1[S-])c1cccc(C(C)=Nc2cc(C(C)(C)C)cc(C(C)(C)C)c2[S-])n1.[Zn+2] [DBZ, [Zn(py^tBuN2Me2S2)]] | 10 ± 2.39 | 261 ± 35 | 9.9 10^5 M^−1 | 1.12 | -7.93 ± 0.019 | 22.8 10^5 M^−1 | 1.32 | -8.56 ± 0.096 | 30.7 10^5 M^−1 | 1.45 | -9.18 ± 0.19 | ~1 | 9.0 10^−13 L mol^−1 cm^3 | 2.51 | 3.21 | 79.6 | 50.0 | 25.0 | 25.0 | 12.5 | MBC [4]: 50.0 µg/mL; MIC ([4]; 24 h): 25.0 µg/mL; MBC [6]: 25.0 µg/mL; MIC [6]: 12.5 µg/mL; mean size of self-assembled adduct with BSA [7]: 110 nm; Kq (quenching rate constant) ([8]; T = 288 K): 4.15 10^14 M^−1 s^−1; Ksv (Stern–Volmer quenching constant) ([8]; T = 288 K): 19.0 10^5 M^−1; Kq (quenching rate constant) ([8]; T = 298 K): 5.40 10^14 M^−1 s^−1; Ksv (Stern–Volmer quenching constant) ([8]; T = 298 K): 24.7 10^5 M^−1; Kq (quenching rate constant) ([8]; T = 318 K): 5.97 10^14 M^−1 s^−1; Ksv (Stern–Volmer quenching constant) ([8]; T = 318 K): 27.3 10^5 M^−1; DBZ binds to BSA more than DBZH4 ([8]; ratio of KSV, DBZ over DBZH4): ~30 fold; DBZ binds stronger than DBZH4 ([8]; ratio of binding constants, conclusions): about 35 times; KSV (called binding constants in conclusions) [8]: 2.47e+06 M⁻¹; Kq [8]: 5.4e+14 M⁻¹ s⁻¹; BSA cathodic peak potential after addition of complex [9]: −0.55 V; kR/kO binding constants [9]: 0.43
2 | CC(Nc1cc(C(C)(C)C)cc(C(C)(C)C)c1[S-])c1cccc(C(C)Nc2cc(C(C)(C)C)cc(C(C)(C)C)c2[S-])n1.[Zn+2] (centres unmarked) [DBZH4, [Zn(py^tBuN2H4Me2S2)]] | 15.5 ± 0.48 | 304 ± 6 | 0.13 10^5 M^−1 | 1.22 | -5.4 ± 0.072 | 0.31 10^5 M^−1 | 1.40 | -6.12 ± 0.048 | 0.76 10^5 M^−1 | 1.42 | -6.84 ± 0.048 | ~1 | 5.4 10^−13 L mol^−1 cm^3 | 2.31 | 3.67 | 90.0 | 60.0 | 30.0 | 30.0 | 15.0 | MBC [6]: 30.0 µg/mL; MIC [6]: 15.0 µg/mL; mean size of self-assembled adduct with BSA [7]: 339 nm; size range of self-assembled adduct with BSA [7]: 100–1000 nm; Kq (quenching rate constant) ([8]; T = 288 K): 0.150 10^14 M^−1 s^−1; Ksv (Stern–Volmer quenching constant) ([8]; T = 288 K): 0.69 10^5 M^−1; Kq (quenching rate constant) ([8]; T = 298 K): 0.153 10^14 M^−1 s^−1; Ksv (Stern–Volmer quenching constant) ([8]; T = 298 K): 0.70 10^5 M^−1; Kq (quenching rate constant) ([8]; T = 318 K): 0.155 10^14 M^−1 s^−1; Ksv (Stern–Volmer quenching constant) ([8]; T = 318 K): 0.71 10^5 M^−1; KSV (called binding constants in conclusions) [8]: 70000 M⁻¹; Kq [8]: 1.5e+13 M⁻¹ s⁻¹; BSA cathodic peak potential after addition of complex [9]: −0.57 V; kR/kO binding constants [9]: 0.48
